Patent US20210106566A1, “PHARMACEUTICAL COMPOSITION FOR TREATING AND/OR PREVENTING PERIPHERAL NEUROPATHY OR SPINAL CORD INJURY” (NATIONAL UNIVERSITY CORPORATION NAGOYA UNIVERSITY, priority 2015, published 2021)

Legend:
Chrne, Colq, and Rapsn = assay: Mouse sciatic nerve autologous transplantation model: mRNA in gastrocnemius muscle; assay type: in vivo; details: 8 weeks after surgery, 30 mg/kg/day
Source text: Adult male C57BL/6J mice (8 weeks old; 19.5-22.0 g) were purchased from Charles River. The mice were anesthetized with isoflurane and underwent gluteal muscle incision under a sterile condition to expose the sciatic nerve in the left leg. The sciatic nerve was cut at the following two sites (1) and (2): (1) the site 3 mm distal to the first bifurcation of biceps femoris (hereinafter referred to as proximal transection site) (2) the site 3 mm distal to the proximal transection site (hereinafter referred to as distal transection site) The excised nerve segment with a length of 3 mm was confirmed to be completely cut at the two sites. The perineurium was sutured with nylon thread (10-0 black) at the proximal transection site and the distal transection site under a microscope. The remaining thread was used as a marker for finding the nerve transection site in the sacrifice of the mice. In order to reduce DMSO toxicity, a solution of 60 mg/mL zonisamide in 100% DMSO was prepared and the solution was diluted in olive oil to give a solution of 3 mg/mL zonisamide in 5% DMSO. The control solution (5% DMSO) or zonisamide (3 mg/mL×about 0.2 mL) at 30 mg/kg/day was administered to the stomach using a disposable probe needle (flexible type, Fuchigami) once a day for 1 to 8 weeks from the end of surgery until sacrifice. Myelin sheath formation in the sciatic nerve was analyzed in six mice in each group. One week after the sciatic nerve autologous transplantation, the sciatic nerve was transected at “the proximal transection site” and “the site 3 mm distal to the distal transection site” to excise a nerve segment with a length of 6 mm. […] The number and area of myelinated axons in the sciatic nerve were manually measured using ImageJ software in a blinded fashion. […] The mRNA expression levels of Bdnf, Ngf, Ntf4, Ntrk1, Ntrk2, Map2, Mapt, Gap43, Chrne, Colq, and Rapsn were quantified in a manner similar to Example 5.

[1] = system: severely crushed spinal cord model mice; assay: Severely crushed spinal cord model mice: rotarod test; assay type: in vivo, mouse
Source text: Female C57BL/6J mice (8 weeks old; 19.5-22.0 g) were purchased from Charles River. The female C57BL/6J mice were anesthetized by intraperitoneally administering pentobarbital sodium and underwent back incision under a sterile condition to perform laminectomy at the 10th thoracic vertebra. The spinal cord was crushed at 100 kdyn using a tip with a diameter of 1.35 mm on IH Spinal Cord Impactor. After the occurrence of hematoma in the spinal cord was confirmed under a microscope, the wound was closed and 1 ml of physiological saline was subcutaneously injected into the posterior neck region to prevent dehydration. The mice with spinal cord injury were separated into two groups in a blinded fashion. […] One day after surgery, motor function of mice in both groups was assessed using BMS score (Basso mouse scale; Li et. al. J Neurosurg Spine 4: 165-173 (2006)) in a blinded fashion to select the mice with BMS score of 1 or lower and consider them as severely crushed spinal cord model mice. […] The latency until a mouse fell off the rotarod (holding time, in seconds; a maximum latency of 300 seconds) was measured in the accelerating rotation mode with an initial speed of 2 rpm, an accelerated speed of 5 rpm/min, and a maximum speed of 40 rpm. The latency was measured 3 times at an interval of 10 minutes and the three measurements were averaged for assessment (FIG. 15).

## NS(=O)(=O)Cc1noc2ccccc12 [Zonisamide, 3-sulfamoylmethyl-1,2-benzisoxazole]
Chrne, Colq, and Rapsn
  expression level of Chrne: increased
  expression level of Colq: increased
  expression level of Rapsn: increased
[1]; day 28 after surgery, 30 mg/kg/day intragastrically
  holding time on rotarod: 135.3 ± 16.4 s
[1]; days 21 and 28 after surgery
  holding time on rotarod compared to the control group: longer
